Source: patent publication US20160221965A1, “DISUBSTITUTED TRIFLUOROMETHYL PYRIMIDINONES AND THEIR USE” (BAYER PHARMA AKTIENGESELLSCHAFT, priority 2013, published 2016)

Columns and labels:
Type in all cases: cell-based
human CCR2 = target: T1, human CCR2 (Homo sapiens, UniProt P41597); assay: Functional Ca2+ release test (B-1); details: Chem-1 cell line transfected with human CCR2, inhibition of MCP-1 effect, MCP-1 at EC50 (about 5 nM), Fluo-4
T1 construct: host or cells: Chem-1 cell line
T1 sequence (P41597 1-360 isoform P41597-2): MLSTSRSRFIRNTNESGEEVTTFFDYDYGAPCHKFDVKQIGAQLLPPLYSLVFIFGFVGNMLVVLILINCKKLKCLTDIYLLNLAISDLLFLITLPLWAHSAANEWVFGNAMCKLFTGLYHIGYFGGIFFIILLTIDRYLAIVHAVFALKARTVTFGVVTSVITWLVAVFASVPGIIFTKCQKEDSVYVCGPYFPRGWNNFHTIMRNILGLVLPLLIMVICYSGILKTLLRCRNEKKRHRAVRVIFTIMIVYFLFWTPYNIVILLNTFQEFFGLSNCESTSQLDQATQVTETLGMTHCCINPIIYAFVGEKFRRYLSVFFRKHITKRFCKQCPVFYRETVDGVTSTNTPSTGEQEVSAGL
Method: The antagonistic action of test substances on CCR2 was determined in a functional Ca^2+ release test. Binding of CCL2/MCP-1 to CCR2 leads to a change in the conformation of the receptor resulting in Gi/Gq protein activation and intracellular signal cascade. This involves, inter alia, an intracellular Ca^2+ release. The test cell used was a Chem-1 cell line transfected with human CCR2 (ChemiSCREEN™ CCR2B Calcium-Optimized FLIPR Cell Line, Merck Millipore).
(§1) The test substances were dissolved in dimethyl sulphoxide (DMSO) at a concentration of 10 mM and serially diluted with DMSO in steps of 1:3.16 for a 10-point dose/activity analysis. According to the desired test concentrations, the substances were pre-diluted in Tyrode with 2 mM CaCl2 and 0.05% BSA.
The cells, cultivated in DMEM high glucose [supplemented with 10% FCS, 1 mM pyruvate, 15 mM HEPES, 500 μg/ml geniticin and non-essential amino acids (NEAA)], were sown at 5000 cells/25 μl in 384 well, μCLEAR/black cell culture plates from Greiner (#781092) and incubated at 37° C. for 24 h. The sowing medium consisted of DMEM high glucose [supplemented with 5% FCS, 1 mM pyruvate, 15 mM HEPES, 50 U/ml penicillin, 50 μg/ml streptomycin and non-essential amino acids (NEAA)]. The medium was then removed and the cells were charged for 60 min at 37° C. with Fluo-4 dye [25 μl Tyrode with 3 μM Fluo-4 AM (1 mM DMSO stock solution), 0.4 mg/ml Brilliant Black, 2.5 mM probenicid, 0.03% Pluronic F-127]. The cells were pre-incubated for 10 min with 10 μl of the test substances diluted in buffer, and 20 μl of agonist solution (MCP-1 in Tyrode with 0.05% BSA) were then added. MCP-1 was employed at the concentration which corresponds to the EC50 which had been determined in a preliminary test (usually about 5 nM). Ca^2+ release was monitored over a period of 120 s in 1 s increments in a proprietary fluorescence imaging reader. The molar concentration of the test substance which caused 50% inhibition of the MCP-1 effect (IC50) was determined using a 4-parameter logistic function (Hill function).

murine CCR2 [1] = target: T2, murine CCR2 (Mus musculus, UniProt P51683); assay: Functional β-arrestin recruiting test with human MCP-1 (B-2a); details: U2OS β-arrestin cell line transfected with murine CCR2; agonist human MCP-1 at EC50 (about 3 nM)
T2 construct: host or cells: U2OS β-arrestin cell line
Method: (§2) The antagonistic action of test substances on CCR2 was determined in a β-arrestin test. The PathHunter β-arrestin GPCR test system (DiscoveRx Corporation, Ltd.) is a cell-based functional method for detecting binding of β-arrestin to an activated receptor. The molecular basis is a β-galactosidase complementation measured by the enzymatic conversion of a chemiluminescent substrate. The test cell used was a U2OS β-arrestin cell line transfected with murine CCR2 (93-0543C3, DiscoveRx Corporation, Ltd.).
as §1
(§3) The cells, cultivated in MEM Eagle (supplemented with 10% FCS, 50 U/ml of penicillin, 50 μg/ml of streptomycin, 250 μg/ml of hygromycin and 500 μg/ml of geniticin), were sown at 2000 cells/25 μl in 384 well, μCLEAR/black cell culture plates from Greiner (#781092) and incubated at 37° C. for 24 h. The sowing medium consisted of Opti-MEM (supplemented with 1% FCS, 50 U/ml of penicillin and 50 μg/ml of streptomycin). The cells were pre-incubated for 10 min with 10 μl of the test substances diluted in buffer, and 10 μl of agonist solution [human MCP-1 (PeproTech, #300-04) in Tyrode with 0.05% BSA] were then added. The human MCP-1 was employed at the concentration which corresponds to the EC50 which had been determined in a preliminary test (usually about 3 nM). After 90 min of incubation at 37° C., the solution was removed, and recruitment of β-arrestin to CCR2 was detected with the aid of the PathHunter detection reagent (93-001, DiscoveRx Corporation, Ltd.) according to the instructions of the manufacturer. Luminescence was measured after an incubation time of 60 min using a proprietary luminescence imaging measuring instrument. The molar concentration of the test substance which caused 50% inhibition of the MCP-1 effect (IC50) was determined using a 4-parameter logistic function (Hill function).

murine CCR2 [2] = target: T2, murine CCR2; assay: Functional β-arrestin recruiting test with murine MCP-1 (B-2b); details: U2OS β-arrestin cell line transfected with murine CCR2; agonist murine MCP-1
Method: as §2, §1, §3
The test was carried out in a manner identical to that described above under B-2a, but using murine MCP-1 (PeproTech, #250-10) as agonist.

T2 sequence (P51683 whole entry): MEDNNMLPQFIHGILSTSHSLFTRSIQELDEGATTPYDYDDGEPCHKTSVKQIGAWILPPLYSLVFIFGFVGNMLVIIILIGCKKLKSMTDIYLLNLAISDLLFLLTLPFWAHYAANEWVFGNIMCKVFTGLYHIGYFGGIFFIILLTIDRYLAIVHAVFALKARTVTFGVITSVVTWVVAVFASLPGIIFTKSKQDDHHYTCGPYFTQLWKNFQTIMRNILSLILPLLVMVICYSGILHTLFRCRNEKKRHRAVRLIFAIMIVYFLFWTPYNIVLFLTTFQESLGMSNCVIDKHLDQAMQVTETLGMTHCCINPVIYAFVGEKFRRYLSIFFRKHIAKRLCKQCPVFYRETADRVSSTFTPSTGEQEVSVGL

Nc1nc(C(F)(F)F)c(Oc2ccc(Cl)c(C(F)(F)F)c2)c(=O)[nH]1 [Example 2, 2-Amino-5-[4-chloro-3-(trifluoromethyl)phenoxy]-6-(trifluoromethyl)pyrimidin-4(3H)-one]
IC50 (human CCR2): 3.3 nM
IC50 (murine CCR2 [1]): 23 nM
IC50 (murine CCR2 [2]): 69 nM

Nc1nc(C(F)(F)F)c([S+]([O-])c2ccc(Cl)c(Cl)c2)c(=O)[nH]1 (centres unmarked) [Example 62]
IC50 (human CCR2): 542 nM
IC50 (murine CCR2 [2]): 1340 nM

CNc1nc(C(F)(F)F)c(Oc2ccc(Cl)c(Cl)c2)c(=O)[nH]1 [Example 66]
IC50 (human CCR2): 9.8 nM
IC50 (murine CCR2 [2]): 506 nM

CC(C)Nc1nc(C(F)(F)F)c(Oc2ccc(Cl)c(Cl)c2)c(=O)[nH]1 [Example 65]
IC50 (human CCR2): 121 nM
IC50 (murine CCR2 [2]): 1630 nM

Nc1nc(C(F)(F)F)c(Cc2ccc(Cl)c(Cl)c2)c(=O)[nH]1 [Example 1, 2-Amino-5-(3,4-dichlorobenzyl)-6-(trifluoromethyl)pyrimidin-4(3H)-one]
IC50 (human CCR2): 19 nM
IC50 (murine CCR2 [1]): 200 nM
IC50 (murine CCR2 [2]): 312 nM

O=c1[nH]c(C2CCC2)nc(C(F)(F)F)c1Oc1ccc(Cl)c(Cl)c1 [Example 69]
IC50 (human CCR2): 32 nM
IC50 (murine CCR2 [2]): 523 nM

CCNc1nc(C(F)(F)F)c(Oc2ccc(Cl)c(Cl)c2)c(=O)[nH]1 [Example 64, 5-(3,4-Dichlorophenoxy)-2-(ethylamino)-6-(trifluoromethyl)pyrimidin-4(3H)-one]
IC50 (human CCR2): 13 nM
IC50 (murine CCR2 [2]): 2700 nM

Nc1nc(C(F)(F)F)c(Cc2ccc(Cl)nc2)c(=O)[nH]1 [Example 58]
IC50 (human CCR2): 381 nM
IC50 (murine CCR2 [2]): 60000 nM

Nc1nc(C(F)(F)F)c(Oc2ccc(C(F)(F)F)cc2)c(=O)[nH]1 [Example 74]
IC50 (human CCR2): 50 nM
IC50 (murine CCR2 [2]): 4160 nM

Nc1nc(C(F)(F)F)c([S+]([O-])c2ccc(Cl)c(C(F)(F)F)c2)c(=O)[nH]1 (centres unmarked) [Example 60, 2-Amino-5-{[4-chloro-3-(trifluoromethyl)phenyl]sulphinyl}-6-(trifluoromethyl)pyrimidin-4(3H)-one]
IC50 (human CCR2): 117 nM
IC50 (murine CCR2 [2]): 1430 nM

Cc1ccc(Oc2c(C(F)(F)F)nc(N)[nH]c2=O)cc1Cl [Example 71]
IC50 (human CCR2): 2.4 nM
IC50 (murine CCR2 [2]): 1720 nM

Nc1nc(C(F)(F)F)c(Oc2ccc(Cl)c(Cl)c2)c(=O)[nH]1 [Example 3, 2-Amino-5-(3,4-dichlorophenoxy)-6-(trifluoromethyl)pyrimidin-4(3H)-one]
IC50 (human CCR2): 3.4 nM
IC50 (murine CCR2 [1]): 49 nM
IC50 (murine CCR2 [2]): 280 nM

Nc1nc(C(F)(F)F)c(S(=O)(=O)c2ccc(Cl)c(C(F)(F)F)c2)c(=O)[nH]1 [Example 61]
IC50 (human CCR2): 110 nM
IC50 (murine CCR2 [2]): 2950 nM
